According to US6534486B1, “2-(purin-9-yl)-Tetrahydrofuran-3,4-diol derivatives” (SmithKline Beecham Corporation, priority 1998, dated 2003):

Key:
Format in all cases: cell-based
Details in all cases: ratio of EC50 to that of NECA, CHO cells transfected with human receptor, SPAP readout
[1] = target: human adenosine 2a receptor (Homo sapiens, UniProt P29274); test: Agonist activity at adenosine 2a receptor, CHO cells with CRE-SPAP reporter (basal cAMP)
Description: (§1) (1) Agonist activity against adenosine 2a, adenosine 1 and adenosine 3 receptor subtypes.
(§2) Agonist selectivity of compounds against other human adenosine receptors was determined using Chinese hamster ovary (CHO) cells transfected with the gene for the relevant human adenosine receptor following a method based on that of Castanon and Spevak, 1994. The CHO cells were also transfected with cyclic AMP response elements promoting the gene for secreted placental alkaline phosphatase (SPAP) (Wood, 1995). The effect of test compounds was determined by their effects on basal levels of cAMP (A2a) or on forskolin-enhanced cAMP (A1 and A3) as reflected by changes in levels of SPAP. EC50 values for compounds were then determined as a ratio to that of the non-selective agonist N-ethyl carboxamide adenosine (NECA).

[2] = target: T1, human adenosine 1 receptor (Homo sapiens, UniProt P30542); test: Agonist activity at adenosine 1 receptor, CHO cells with CRE-SPAP reporter (forskolin-enhanced cAMP)
T1 sequence (P30542 1-326): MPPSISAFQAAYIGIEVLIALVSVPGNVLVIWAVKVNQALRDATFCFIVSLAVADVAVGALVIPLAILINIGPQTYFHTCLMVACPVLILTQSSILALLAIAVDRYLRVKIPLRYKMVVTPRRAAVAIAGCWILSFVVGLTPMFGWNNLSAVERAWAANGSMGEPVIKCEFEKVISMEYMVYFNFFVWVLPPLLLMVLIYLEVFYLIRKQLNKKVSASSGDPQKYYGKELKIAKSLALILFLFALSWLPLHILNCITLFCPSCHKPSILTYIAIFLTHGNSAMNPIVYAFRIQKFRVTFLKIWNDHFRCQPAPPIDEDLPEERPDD
Description: as §1, §2

[3] = target: T2, human adenosine 3 receptor (Homo sapiens, UniProt P0DMS8); test: Agonist activity at adenosine 3 receptor, CHO cells with CRE-SPAP reporter (forskolin-enhanced cAMP)
T2 sequence (P0DMS8 1-318): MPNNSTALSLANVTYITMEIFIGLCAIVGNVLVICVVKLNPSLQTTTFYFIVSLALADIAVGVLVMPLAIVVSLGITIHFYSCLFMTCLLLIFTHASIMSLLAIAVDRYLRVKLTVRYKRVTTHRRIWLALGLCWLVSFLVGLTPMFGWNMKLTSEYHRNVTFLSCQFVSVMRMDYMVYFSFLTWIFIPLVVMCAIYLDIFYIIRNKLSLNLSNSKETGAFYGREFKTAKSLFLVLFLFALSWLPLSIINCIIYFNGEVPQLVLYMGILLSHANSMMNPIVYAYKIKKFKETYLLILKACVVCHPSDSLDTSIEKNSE
Description: as §1, §2

human adenosine 2a receptor, sequence (P29274 whole entry): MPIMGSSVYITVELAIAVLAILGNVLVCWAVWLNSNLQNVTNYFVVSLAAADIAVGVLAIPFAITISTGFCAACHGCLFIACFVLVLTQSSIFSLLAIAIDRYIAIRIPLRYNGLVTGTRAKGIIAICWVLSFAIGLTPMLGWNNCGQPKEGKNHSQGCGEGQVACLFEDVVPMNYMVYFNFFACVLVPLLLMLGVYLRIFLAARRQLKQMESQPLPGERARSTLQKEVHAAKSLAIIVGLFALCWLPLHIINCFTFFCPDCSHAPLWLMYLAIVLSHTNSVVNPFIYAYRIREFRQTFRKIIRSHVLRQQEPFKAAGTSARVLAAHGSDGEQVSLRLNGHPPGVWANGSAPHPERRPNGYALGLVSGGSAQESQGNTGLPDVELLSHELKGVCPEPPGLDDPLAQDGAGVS

| SMILES | A2a, EC50 values as a ratio of that of NECA [1] | A1, EC50 values as a ratio of that of NECA [2] | A3, EC50 values as a ratio of that of NECA [3] |
| --- | --- | --- | --- |
| OC1CCCC1Nc1nc(NCC(c2ccccc2)c2ccccc2)c2ncn(C3OC(Cn4cncn4)C(O)C3O)c2n1 [Example 6, (2R,3R,4S,5R)-2-[6-(2,2-Diphenyl-ethylamino)-2-(2R-hydroxy-cyclopent-(R)-ylamino)-purin-9-yl]-5-[1,2,4]triazol-1-ylmethyl-tetrahydro-furan-3,4-diol format] | 23.7 | >=3397 | >274 |
| O=CO.O[C@@H]1[C@H](O)[C@@H](Cn2nccn2)O[C@H]1n1cnc2c(NCC(c3ccccc3)c3ccccc3)nc(NCCN3CCOCC3)nc21 [Example 4, (2R,3R,4S,5R)-2-[6-(2,2-Diphenyl-ethylamino)-2-(2-morpholin-4-yl-ethylamino)-purin-9-yl]-5-[1,2,3]triazol-2-ylmethyl-tetrahydro-furan-3,4-diol formate] | 16.9 | 1014 | >174 |
| N[C@H]1CC[C@H](Nc2nc(NCC(c3ccccc3)c3ccccc3)c3ncn([C@@H]4O[C@H](Cn5nccn5)[C@@H](O)[C@H]4O)c3n2)CC1.O=CO [Example 1, (2R,3R,4S, 5R)-2-[2-(trans-4-Amino-cyclohexylamino)6-(2,2-diphenyl-ethylamino)-purin-9-yl]-5-[1,2,3]triazol-2-ylmethyl-tetrahydro-furan-3,4-diol formate] | 17.1 | >=3969 | >656 |

Now from value to compound:

| A2a, EC50 values as a ratio of that of NECA [1] | A1, EC50 values as a ratio of that of NECA [2] | A3, EC50 values as a ratio of that of NECA [3] | SMILES |
| --- | --- | --- | --- |
| 14.4 | >8479 | >152 | OC1C(Cn2cncn2)OC(n2cnc3c(NCC(c4ccccc4)c4ccccc4)nc(NC4CCNC4)nc32)C1O [Example 2, (2R,3R,4S,5R)-2-[6-(2,2-Diphenyl-ethylamino)-2-(pyrrolidin-3R-ylamino)-purin-9-yl]-5-[1,2,4]triazol-1-ylmethyl-tetrahydro-furan-3,4-diol diformate] |
| 13.46 | 8479 | >270 | Cn1cnc(CCNc2nc(NCC(c3ccccc3)c3ccccc3)c3ncn([C@@H]4O[C@H](CN5C(=O)CNC5=O)[C@@H](O)[C@H]4O)c3n2)c1.O=CO.O=CO [Example 5, 3-(5R-{6-(2,2-Diphenyl-ethylamino)-2-[2-(1-methyl-1-H-imidazol-4-yl)-ethylamino]-purin-9-yl}3S,4R-dihydroxy-tetrahydro-furan-2R-ylmethyl)-imidazolidine-2,4-dione diformate] |
| 1.31 | 3038.8 | >147 | Cn1cnc(CCNc2nc(NCC(c3ccccc3)c3ccccc3)c3ncn(C4OC(Cn5nccn5)C(O)C4O)c3n2)c1 [Example 3, (2R,3R,4S,5R)-2-{6-(2,2-Diphenyl-ethylamino)-2-[2-(1-methyl-1-H-imidazol-4-yl)-ethylamino]-purin-9-yl}-5-[1,2,3]triazol-2-ylmethyl-tetrahydro-furan-3,4-diol diformate] |
